{
  "source": "patent US20100196929A1",
  "about": "“STABILISATION OF THE PHENOTYPIC PROPERTIES OF ISOLATED PRIMARY CELLS” (Vrije Universiteit Brussel, priority 2007, published 2010)",
  "key": {"hepatoma cell lines": {"test_system": "hepatoma cell lines", "settings": "cited from earlier work"}, "primary hepatocytes": {"test_system": "primary hepatocytes", "settings": "cited from earlier work"}, "[1]": {"test_system": "EGF-stimulated cultured hepatocytes", "assay": "Cell morphology by inverse light microscopy", "type": "cell-based, rat", "experimental": "(§1) Hepatocytes (viability >80%) were isolated from male Sprague-Dawley rats by a two-step collagenase perfusion. Cells (0.4×10^5 cells/cm^2) were cultured in MEM/M199 (3:1, v/v), containing 1 mg/ml BSA, 5 μg/ml bovine insulin, 2 mM L-glutamine, antibiotics (7.3 IU/ml benzyl penicillin, 50 μg/ml streptomycin sulphate, 50 μg/ml kanamycin monosulphate and 10 μg/ml sodium ampicillin) and 10% (v/v) fetal calf serum.\n(§2) After 4 h, medium was removed and serum-free medium, containing 0.5 μg/ml hydrocortisone and 50 μg/ml EGF, was added and renewed daily.\n(§3) 1) unstimulated cultures, referred to as “negative control” or “−EGF”, where hepatocytes are arrested at the mitogen-dependent R-point. 2) EGF-stimulated cultures, referred to as “positive control” or “+EGF”, in which EGF induces G1/S transition and mitosis. 3) EGF-stimulated cultures treated with DAC and/or in combination with 4-Me2N-BAVAH or AN-8.\nCell morphology was analyzed by inverse light microscopy, using an Optiphot Nikon Phase Contrast microscope."}, "[2]": {"test_system": "EGF-stimulated adult primary rat hepatocytes", "assay": "DNA synthesis ([methyl-3H]-thymidine incorporation) in EGF-stimulated hepatocytes", "type": "cell-based", "settings": "72 hours; for dose-response of inhibition of DNA replication: increasing concentrations (4-Me2N-BAVAH 10-50 μM, AN-8 1-5 μM, DAC 1-500 μM)", "experimental": "as §1, §2\nDAC was dissolved in PBS, 4-Me2N-BAVAH and AN-8 were dissolved in ethanol, to a concentration of 100 mM for DAC and 4-Me2N-BAVAH and 25 mM for AN-8.\nas §3\nDNA replication was measured as incorporation of radioactively labeled thymidine into newly synthesized DNA. Cells were incubated with [methyl-3H]-thymidine (25 Ci/mmol) for 24 hours and harvested at 72 hours in ice-cold PBS, the time point where DNA synthesis in untreated EGF-stimulated cultures is maximal. DNA was precipitated with 30% trichloroacetic acid (TCA) overnight at 4° C. After centrifugation, cells were washed once with 10% TCA and twice with 5% TCA. The pellet was solved in formic acid and radioactively labeled thymidine was measured by liquid scintillation counting.\nFrom the moment of seeding, adult primary rat hepatocytes, stimulated with EGF 4 hours after plating and constantly thereafter, were exposed to different concentrations of 4-Me2N-BAVAH (10 μM, 15 μM, 20 μM, 25 μM and 50 μM), AN-8 (1 μM, 2.5 μM and 5 μM) or DAC (1 μM, 10 μM, 50 μM, 100 μM, 250 μM and 500 μM). [methyl-3H]-Thymidine incorporation was measured at 72 hours.\nFrom the moment of seeding, adult primary rat hepatocytes, stimulated with EGF 4 hours after plating and constantly thereafter, were exposed to different combinations of 4-Me2N-BAVAH and DAC or AN-8 and DAC:\n[methyl-3H]-Thymidine incorporation was measured at 72 hours."}, "[3]": {"test_system": "EGF-stimulated adult primary rat hepatocytes", "assay": "Albumin secretion into culture medium (ELISA)", "type": "cell-based", "settings": "48-72 hours of culture", "experimental": "as §1, with “are” for “were”\nAfter 4 h, medium was removed and serum-free medium, containing 0.5 μg/ml hydrocortisone and 50 μg/ml EGF, is added and renewed daily.\n1) EGF-stimulated cultures, referred to as “positive control” or “control”. 2) EGF-stimulated cultures treated with DAC and/or in combination with 4-Me2N-BAVAH or AN-8.\nMedium samples were analyzed for their albumin content by an enzyme-linked immunosorbent assay (ELISA) according to Dunn et al. 1991 (Biotechnol Prog 7(3): 237-245).\nFrom the moment of seeding, adult primary rat hepatocytes, stimulated with EGF 4 hours after plating and constantly thereafter, were exposed to 50 μM 4-Me2N-BAVAH, 5 μM AN-8 or 500 μM DAC. Albumin secretion into the culture medium was measured between 48-72 hours of culture (FIG. 7A-C).\nFrom the moment of seeding, adult primary rat hepatocytes, stimulated with EGF 4 hours after plating and constantly thereafter, were exposed to a combination of 25 μM 4-Me2N-BAVAH and 50 μM DAC. Albumin secretion into the culture medium is measured between 48-72 hours of culture (FIG. 8A)."}, "CYP1A1": {"test_system": "CYP1A1", "assay": "CYP1A1 protein expression (immunoblot)", "type": "cell-based, rat", "settings": "increasing concentrations (DAC 1-500 μM, AN-8 1-5 μM); 72 h", "experimental": "as §1, with “two step” for “two-step”, “serum. After 4 h, medium was removed and serum-free medium, containing 0.5 μg/ml hydrocortisone and 50 μg/ml EGF, was added and renewed daily. DAC was dissolved in PBS, whereas AN-8 was dissolved in ethanol to a concentration of 100 mM for DAC and 25 mM for AN-8.” for “serum.”\n1) EGF-stimulated cultures, referred to as C. 2) EGF-stimulated cultures, exposed to 0.02% v/v ethanol, referred to as S. 3) EGF-stimulated cultures treated with DAC and/or AN-8.\nAt 72 h, cultured hepatocytes were harvested in ice-cold PBS. Cell pellets were lysed in homogenization buffer, sonicated and left for 1 hour on ice. After centrifugation, the protein concentration in the supernatant was determined. 50 μg proteins were separated by sodium dodecyl sulphate polyacrylamide gel electrophoresis (SDS-PAGE, 7.5%) and transferred to nitrocellulose membranes. Subsequently, membranes are immersed into Ponceau S to examine equal sample loading. […] Proteins were detected by using an enhanced chemiluminescence detection system. […]"}},
  "data": [
    {"compound": "CCCC(CCC)C(=O)O", "note": "[valproate]", "values": [
      {"measurement": "apoptosis", "setting": "hepatoma cell lines", "result": "induce apoptosis"},
      {"measurement": "apoptosis", "setting": "primary hepatocytes", "result": "not"}
    ]},
    {"compound": "Nc1ncn([C@H]2C[C@H](O)[C@@H](CO)O2)c(=O)n1", "note": "[DAC, 5-aza-2′-deoxycytidine]", "values": [
      {"measurement": "cell shape vs untreated control cultures with EGF alone", "setting": "[1]; 500 μM", "result": "retained better the in vivo-like cuboidal shape"},
      {"measurement": "inhibition of proliferation (morphological appearance) vs untreated +EGF culture", "setting": "[1]; 500 μM", "result": "clear inhibition of proliferation"},
      {"measurement": "inhibition of the DNA synthesis", "setting": "[2]; 500 μM", "result": "complete inhibition"},
      {"measurement": "dose-response of inhibition of DNA replication", "setting": "[2]", "result": "clear dose-response relationship"},
      {"measurement": "increase in albumin secretion compared to control cultures", "setting": "[3]; 500 μM", "result": 1.8, "unit": "fold"},
      {"measurement": "CYP1A1 protein expression vs untreated hepatocyte cultures", "setting": "CYP1A1", "result": "dose-dependent higher CYP1A1 protein expression"}
    ]},
    {"compound": "CCN(CC)Cc1ccc2cc(COC(=O)Nc3ccc(C(=O)NO)cc3)ccc2c1", "note": "[ITF2357]", "values": [
      {"measurement": "apoptosis", "setting": "hepatoma cell lines", "result": "induce apoptosis"},
      {"measurement": "apoptosis", "setting": "primary hepatocytes", "result": "not"}
    ]},
    {"compound": "CN(C)c1ccc(C(=O)NCCCCC(=O)NO)cc1", "note": "[4-Me2N-BAVAH, 5-(4-dimethylaminobenzoyl)-aminovaleric acid hydroxamide]", "values": [
      {"measurement": "inhibition of the DNA synthesis", "setting": "[2]; 50 μM", "result": "complete inhibition"},
      {"measurement": "dose-response of inhibition of DNA replication", "setting": "[2]", "result": "clear dose-response relationship"},
      {"measurement": "increase in albumin secretion compared to control cultures", "setting": "[3]; 50 μM", "result": 2.4, "unit": "fold"}
    ]},
    {"compound": "CC(/C=C/C(=O)NO)=C\\[C@@H](C)C(=O)c1ccc(N(C)C)cc1", "note": "[TSA, Trichostatin A]", "values": [
      {"measurement": "apoptosis", "setting": "hepatoma cell lines", "result": "induce apoptosis"},
      {"measurement": "apoptosis", "setting": "primary hepatocytes", "result": "not"}
    ]},
    {"compound": "O=C(CCCCCNC(=O)c1ccc(N2CCCC2)cc1)NO", "note": "[AN-8]", "values": [
      {"measurement": "cell shape vs untreated control cultures with EGF alone", "setting": "[1]; 5 μM", "result": "retained better the in vivo-like cuboidal shape"},
      {"measurement": "inhibition of proliferation (morphological appearance) vs untreated +EGF culture", "setting": "[1]; 5 μM", "result": "clear inhibition of proliferation"},
      {"measurement": "inhibition of the DNA synthesis", "setting": "[2]; 5 μM", "result": "complete inhibition"},
      {"measurement": "dose-response of inhibition of DNA replication", "setting": "[2]", "result": "clear dose-response relationship"},
      {"measurement": "increase in albumin secretion compared to control cultures", "setting": "[3]; 5 μM", "result": 2.1, "unit": "fold"},
      {"measurement": "CYP1A1 protein expression vs untreated hepatocyte cultures", "setting": "CYP1A1", "result": "dose-dependent higher CYP1A1 protein expression"}
    ]}
  ]
}
